Literature values as cited in patent US20110287061A1 (priority 2010, published 2011).

What was measured:
gray hair [1] = details: of 20 patients taking varying amounts daily for other conditions
gray hair [2] = details: 50 patients with gray hair, daily administration for two months
hair loss = details: administered together with Saw Palmetto; individuals with mild to moderate hair loss

| Structure (SMILES) | cases of dramatic hair color change and hair re-growth (gray hair [1]) | hair colour change (gray hair [2]) | hair growth (hair loss) |
| --- | --- | --- | --- |
| Nc1ccc(C(=O)O)cc1 [PABA, 4-aminobenzoic acid] | 5 cases | marked darkening of the hair |  |
| CC[C@H](CC[C@@H](C)[C@H]1CC[C@H]2[C@@H]3CC=C4C[C@@H](O)CC[C@]4(C)[C@H]3CC[C@]12C)C(C)C [beta-sitosterol] |  |  | healthy hair growth |
